Measurements taken from the supplement of paper PMC10307832.

Assays:
Experiment in all cases: relative viability (nuclei count vs DMSO), 5 days (fraction); higher = more cells survive
Wnt-C59 + Alpelisib = compound: CC1=NC=CC(=C1)C2=CC=C(C=C2)CC(=O)NC3=CC=C(C=C3)C4=CN=CC=C4 [Wnt-C59] + Cc1nc(NC(=O)N2CCC[C@H]2C(N)=O)sc1-c1ccnc(C(C)(C)C(F)(F)F)c1 [Alpelisib] (partner 2 µM)
In short: (§1)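 A single step with final 0.05% Triton X-100, 1% formaldehyde and 1 ug/ml Hoechst fixed the cells and stained nuclei 5 days after treatment. Lung cancer cell lines in 1536-well plates had been treated by pin tool the day after seeding with one drug alone or a fixed anchor-drug dose plus five library-drug doses (not always all listed) in √10 steps, and nuclei were counted on 4× images. Relative viability is the ratio of nuclei in treated wells to nuclei in vehicle wells, taken as the median of duplicate plates.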

Lapatinib + Bortezomib = compound: CS(=O)(=O)CCNCc1ccc(-c2ccc3ncnc(Nc4ccc(OCc5cccc(F)c5)c(Cl)c4)c3c2)o1 [Lapatinib] + CC(C)C[C@H](NC(=O)[C@H](Cc1ccccc1)NC(=O)c1cnccn1)B(O)O [Bortezomib] (partner 0.002 µM)
In short: as §1

Lapatinib + Luminespib = compound: CS(=O)(=O)CCNCc1ccc(-c2ccc3ncnc(Nc4ccc(OCc5cccc(F)c5)c(Cl)c4)c3c2)o1 [Lapatinib] + CCNC(=O)c1noc(-c2cc(C(C)C)c(O)cc2O)c1-c1ccc(CN2CCOCC2)cc1 [Luminespib] (partner 0.01 µM)
In short: as §1

Lapatinib + Trametinib = compound: CS(=O)(=O)CCNCc1ccc(-c2ccc3ncnc(Nc4ccc(OCc5cccc(F)c5)c(Cl)c4)c3c2)o1 [Lapatinib] + CC(=O)Nc1cccc(-n2c(=O)n(C3CC3)c(=O)c3c(Nc4ccc(I)cc4F)n(C)c(=O)c(C)c32)c1 [Trametinib] (partner 0.02 µM)
In short: as §1

Cell Line | relative viability (Wnt-C59 + Alpelisib; first compound 0.001 µM) | relative viability (Wnt-C59 + Alpelisib; first compound 0.01 µM) | relative viability (Wnt-C59 + Alpelisib; first compound 0.03162 µM) | relative viability (Wnt-C59 + Alpelisib; first compound 0.1 µM) | relative viability (Lapatinib + Bortezomib; first compound 0.06325 µM) | relative viability (Lapatinib + Bortezomib; first compound 0.2 µM) | relative viability (Lapatinib + Bortezomib; first compound 0.6325 µM) | relative viability (Lapatinib + Bortezomib; first compound 2 µM) | relative viability (Lapatinib + Luminespib; first compound 0.2 µM) | relative viability (Lapatinib + Luminespib; first compound 2 µM) | relative viability (Lapatinib + Trametinib; first compound 0.02 µM) | relative viability (Lapatinib + Trametinib; first compound 0.06325 µM) | relative viability (Lapatinib + Trametinib; first compound 0.2 µM) | relative viability (Lapatinib + Trametinib; first compound 0.6325 µM) | relative viability (Lapatinib + Trametinib; first compound 2 µM) | relative viability (Lapatinib + Luminespib; first compound 0.02 µM) | relative viability (Lapatinib + Luminespib; first compound 0.06325 µM) | relative viability (Lapatinib + Luminespib; first compound 0.6325 µM) | relative viability (Lapatinib + Bortezomib; first compound 0.02 µM)
ABC-1 | 1.26 | 1.01 | 0.718 | 0.876 | 0.362 | 0.324 | 0.434 | 0.333 | 0.509 | 0.64 |  |  |  |  |  |  |  |  | 
ChaGo-K-1 |  |  |  |  | 1.04 | 0.863 | 0.956 | 0.738 | 0.603 | 0.57 | 0.868 | 0.918 | 0.9 | 0.868 | 0.894 | 0.636 | 0.448 | 0.563 | 
A549 | 0.978 | 0.75 | 0.712 | 0.682 |  |  |  |  |  |  |  |  |  |  |  |  |  |  | 
HCC-78 | 0.298 | 0.336 | 0.333 | 0.363 |  | 0.463 | 0.407 | 0.297 |  |  |  | 0.509 | 0.668 | 0.681 | 0.675 |  |  |  | 0.546
NCI-H1299 | 1.05 | 1.08 | 1.05 | 1.04 | 1.04 | 1.02 | 1.01 | 0.996 |  |  |  |  |  |  |  |  |  |  | 1.05
NCI-H2342 |  |  |  |  |  |  |  |  | 0.665 | 0.703 | 0.706 | 0.722 | 0.65 | 0.676 | 0.629 | 0.579 | 0.607 | 0.692 | 
SW 900 |  |  |  |  |  |  |  |  | 0.17 | 0.175 |  | 0.829 | 0.785 | 0.771 | 0.689 |  | 0.176 | 0.164 | 
NCI-H1703 | 0.33 | 0.328 | 0.352 | 0.283 | 0.313 | 0.317 | 0.24 | 0.32 |  |  |  |  |  |  |  |  |  |  | 0.316
NCI-H1395 | 0.993 | 1.13 | 1.08 | 1.07 |  |  |  |  | 0.706 | 0.663 |  | 0.956 | 1.07 | 1.06 | 1.03 | 0.849 | 0.761 | 0.599 | 
NCI-H1650 |  |  |  |  | 0.206 | 0.223 | 0.192 | 0.243 | 0.198 | 0.2 | 0.568 | 0.516 | 0.514 | 0.46 | 0.444 | 0.19 | 0.202 | 0.2 | 0.203
LK-2 | 1.29 | 1.06 | 1.03 | 0.68 |  |  |  |  | 0.174 | 0.177 | 0.858 |  | 0.782 | 0.663 | 0.832 |  |  | 0.211 | 
SK-MES-1 | 0.841 | 0.909 | 0.833 | 0.965 |  |  |  |  | 0.625 | 0.326 | 0.512 | 0.446 | 0.425 | 0.339 | 0.275 | 0.738 | 0.665 | 0.482 | 
NCI-H1623 |  |  |  |  |  |  |  |  |  | 0.408 |  |  |  |  |  | 0.429 | 0.437 | 0.456 | 
NCI-H1563 | 0.925 | 0.852 | 1.07 | 0.888 | 0.741 | 0.826 | 0.902 | 0.834 | 0.537 | 0.474 |  |  |  |  |  | 0.538 | 0.509 | 0.461 | 0.952
EBC-1 | 0.91 | 0.852 | 0.755 | 0.79 | 0.561 | 0.539 | 0.534 | 0.455 |  |  |  |  |  |  |  |  |  |  | 0.542
